Measurements from patent US20240374492A1, “A SUNSCREEN COMPOSITION COMPRISING AVOBENZONE AND A METHOD FOR PHOTOSTABILIZATION” (ISP Investments LLC, priority 2021, published 2024).

Assay: Photostability of avobenzone in combination with solvents (UV absorbance profile before and after 10 MED radiation)
Format: physicochemical
Conditions: avobenzone with the solvent; for Stability of Avobenzone: 10 MED radiation, solar simulator, UV absorbance 290-400 nm on PMMA plates; for Stability of avobenzone-solvent combination (UV absorbance profile after 10 MED radiation vs initial, FIG. 1 to FIG. 6): before and after 10 MED radiation
Description: 10 minimal erythemal dose (MED) is a quantified dose of radiation that is known for causing skin damage. UV screening agents will eventually breakdown into smaller molecule after prolonged exposure to UV radiation. This is a common, expected phenomenon however, some UV screening agents will degrade faster within the time a person is exposed to sunlight. If the UV screening agent degrades, it loses the ability to absorb UV radiations and eventually results in a lower absorption profile, that translate into a lower SPF value.
If the absorption profile of a specimen, prepared from a UV screening agent-solvent combination, measured after a predefined exposure of 10 MED radiation, reads similar to that of its initial readings, then the UV screening agent is said to be stable in that particular combination of solvent.
Method of testing photostability: For each test formulations prepared according to Table-1 to Table-7, 1.80 mg/cm^2 of samples were deposited on PMMA (polymethyl methacrylate) plates and spread evenly using finger cots. Three plates were prepared for each product. The initial UV absorbance profile of each slide was measured with a UV-VIS spectrophotometer in the wavelength range of 290-400 nm. Four readings were taken for each slide. The test slides were then exposed to 10 MED radiation using a Solar Light LS1000R3 solar simulator. The slides were then equilibrated at room temperature for 15 minutes, and the UV absorbance profile post radiation was measured. The readings were then plotted to correlate initial absorbance behavior of the specimens to that of post radiation. Any degradation of the UV screening agent will result in a lower absorbance readings compared to that of the initial absorbance profile.
FIG. 1 to FIG. 6 illustrate graphs plotted based on UV absorbance profile measured before and after an exposure of 10 MED radiation on test specimens comprising combination of avobenzone and solvents selected from Table-8.

For `CC(CCOC(=O)c1ccccc1)OC(=O)c1ccccc1` (stereo not drawn) [1,3-Butylene glycol Dibenzoate], the “Stability of Avobenzone” value was “not stable” and the “Stability of avobenzone-solvent combination (UV absorbance profile after 10 MED radiation vs initial, FIG. 1 to FIG. 6)” value was “highly instable”.

With `Cc1ccc(C(=O)OC(C)c2ccccc2)cc1` (stereo not drawn) [1-Phenylethyl p-toluate] the “Stability of Avobenzone” value was “not stable”.

In the case of `CCC(OC(=O)c1ccccc1)c1ccccc1` (stereo not drawn) [1-Phenylpropyl Benzoate], the “Stability of Avobenzone” value is reported as “not stable”.

In the case of `O=C(OCCC1CCCCC1)c1ccccc1` [2-Cyclohexylethyl Benzoate], the “Stability of Avobenzone” value is reported as “not stable”.

In the case of `O=C(OCCc1ccccc1)C1CCCCC1` [2-Phenylethyl Cyclohexanoate], the “Stability of Avobenzone” value is reported as “not stable”.

With `CCCCCC(=O)OCCc1ccccc1` [2-Phenylethyl Hexanoate] the “Stability of Avobenzone” value was “not stable”.

In the case of `CCC(=O)OCCc1ccccc1` [2-Phenylethyl Propionate], the “Stability of Avobenzone” value is reported as “not stable”.

In the case of `Cc1ccccc1C(=O)OCCc1ccccc1` [2-Phenylethyl o-toluate], the “Stability of Avobenzone” value is reported as “stable” and the “Stability of avobenzone-solvent combination (UV absorbance profile after 10 MED radiation vs initial, FIG. 1 to FIG. 6)” value is reported as “stable”.

With `O=C(OCCCc1ccccc1)c1ccccc1` [3-Phenylpropyl Benzoate] the “Stability of Avobenzone” value was “stable”.

For `CCc1ccc(C(=O)OCc2ccccc2)cc1` [Benzyl 4-Ethylbenzoate], the “Stability of Avobenzone” value was “not stable”.

In the case of `CC(C)(C)c1ccc(C(=O)OCc2ccccc2)cc1` [Benzyl 4-tert-Butylbenzoate], the “Stability of Avobenzone” value is reported as “not stable” and the “Stability of avobenzone-solvent combination (UV absorbance profile after 10 MED radiation vs initial, FIG. 1 to FIG. 6)” value is reported as “highly instable”.

For `O=C(OCc1ccccc1)c1ccccc1` [Benzyl Benzoate], the “Stability of Avobenzone” value was “stable”.

For `O=C(OCc1ccccc1)c1ccccc1O` [Benzyl Salicylate], the “Stability of Avobenzone” value was “not stable”.

In the case of `Cc1cccc(C(=O)OCc2ccccc2)c1` [Benzyl m-toluate], the “Stability of Avobenzone” value is reported as “not stable”.

With `Cc1ccccc1C(=O)OCc1ccccc1` [Benzyl o-toluate] the “Stability of Avobenzone” value was “stable” and the “Stability of avobenzone-solvent combination (UV absorbance profile after 10 MED radiation vs initial, FIG. 1 to FIG. 6)” value was “stable”.

For `O=C(OC1CCCCC1)c1ccccc1` [Cyclohexyl Benzoate], the “Stability of Avobenzone” value was “not stable” and the “Stability of avobenzone-solvent combination (UV absorbance profile after 10 MED radiation vs initial, FIG. 1 to FIG. 6)” value was “highly instable”.

In the case of `Cc1ccccc1C(=O)OC1CCCCC1` [Cyclohexyl o-toluate], the “Stability of Avobenzone” value is reported as “not stable” and the “Stability of avobenzone-solvent combination (UV absorbance profile after 10 MED radiation vs initial, FIG. 1 to FIG. 6)” value is reported as “highly instable”.

For `CCN(CC)C(=O)c1cccc(C)c1` [N,N-Diethyl m-toluamide], the “Stability of Avobenzone” value was “not stable” and the “Stability of avobenzone-solvent combination (UV absorbance profile after 10 MED radiation vs initial, FIG. 1 to FIG. 6)” value was “highly instable”.

With `O=C(OCCc1ccccc1)c1ccccc1` [Phenethyl benzoate] the “Stability of Avobenzone” value was “stable” and the “Stability of avobenzone-solvent combination (UV absorbance profile after 10 MED radiation vs initial, FIG. 1 to FIG. 6)” value was “stable”.

With `CC(COC(=O)c1ccccc1)OC(=O)c1ccccc1` (stereo not drawn) [Propylene glycol Dibenzoate] the “Stability of Avobenzone” value was “not stable” and the “Stability of avobenzone-solvent combination (UV absorbance profile after 10 MED radiation vs initial, FIG. 1 to FIG. 6)” value was “highly instable”.

For `Cc1cccc(COC(=O)c2ccccc2)c1` [m-Methylbenzyl Benzoate], the “Stability of Avobenzone” value was “not stable”.

With `Cc1ccccc1COC(=O)c1ccccc1` [o-Methylbenzyl Benzoate] the “Stability of Avobenzone” value was “not stable”.

With C12-C15 alkyl benzoate the “Stability of Avobenzone” value was “not stable” and the “Stability of avobenzone-solvent combination (UV absorbance profile after 10 MED radiation vs initial, FIG. 1 to FIG. 6)” value was “highly instable”.
